Source: ChEMBL document CHEMBL1142082, “Oral versus intravenous flucytosine in patients with human immunodeficiency virus-associated cryptococcal meningitis” (Antimicrob Agents Chemother, 2007)

How the values were obtained:
[1] = test system: Homo sapiens; experiment: Effect on platelet count in intravenously dosed HIV associated cryptococcal meningitis patient relative to control; format: functional
[2] = test system: Homo sapiens; experiment: Effect on hemoglobin level in orally dosed HIV associated cryptococcal meningitis patient relative to control; format: functional
[3] = test system: Homo sapiens; experiment: Effect on aspartate aminotransferase level in intravenously dosed HIV associated cryptococcal meningitis patient after 2 weeks relative to baseline; format: functional
[4] = test system: Homo sapiens; experiment: Effect on alanine transferase level in orally dosed HIV associated cryptococcal meningitis patient after 2 weeks relative to baseline; format: functional
[5] = test system: Homo sapiens; experiment: Effect on creatinine clearance in orally dosed HIV associated cryptococcal meningitis patient relative to control; format: functional
[6] = test system: Homo sapiens; experiment: Effect on alanine transferase level in intravenously dosed HIV associated cryptococcal meningitis patient after 2 weeks relative to baseline; format: functional
[7] = test system: Homo sapiens; experiment: Effect on aspartate aminotransferase level in orally dosed HIV associated cryptococcal meningitis patient relative to control; format: functional
[8] = test system: Homo sapiens; experiment: Effect on alanine transferase level in intravenously dosed HIV associated cryptococcal meningitis patient relative to control; format: functional
[9] = test system: Homo sapiens; experiment: Effect on hemoglobin level in intravenously dosed HIV associated cryptococcal meningitis patient relative to control; format: functional
[10] = Fungicidal activity in HIV associated Cryptococcal meningitis patient; format: functional, Cryptococcus
[11] = test system: Homo sapiens; experiment: Effect on neutrophils level in intravenously dosed HIV associated cryptococcal meningitis patient relative to control; format: functional
[12] = test system: Homo sapiens; experiment: Effect on creatinine clearance in intravenously dosed HIV associated cryptococcal meningitis patient after 2 weeks relative to baseline; format: functional
[13] = test system: Homo sapiens; experiment: Effect on neutrophils level in orally dosed HIV associated cryptococcal meningitis patient after 2 weeks relative to baseline; format: functional
[14] = Volume of distribution in intravenously dosed HIV associated cryptococcal meningitis patient normalized to weight; format: ADME, organism-based; conditions: human, in vivo, iv; read-out: Vdss
[15] = test system: Homo sapiens; experiment: Effect on platelet count in orally dosed HIV associated cryptococcal meningitis patient relative to control; format: functional
[16] = Fungicidal activity in orally dosed HIV associated cryptococcal meningitis patient; format: functional, Cryptococcus
[17] = Clearance in intravenously dosed HIV associated cryptococcal meningitis patient; format: ADME, organism-based; conditions: human, in vivo, iv
[18] = AUC in intravenously dosed HIV associated cryptococcal meningitis patient at 24 hrs; format: ADME, organism-based; set-up: time < 24 hr, route intravenous; conditions: human, plasma, iv
[19] = test system: Homo sapiens; experiment: Effect on platelet count in intravenously dosed HIV associated cryptococcal meningitis patient after 2 weeks relative to baseline; format: functional
[20] = Fungicidal activity in intravenously dosed HIV associated cryptococcal meningitis patient; format: functional, Cryptococcus
[21] = AUC in orally dosed HIV associated cryptococcal meningitis patient at 24 hrs; format: ADME, organism-based; set-up: time < 24 hr, route oral; conditions: human, plasma, po
[22] = test system: Homo sapiens; experiment: Effect on creatinine clearance in intravenously dosed HIV associated cryptococcal meningitis patient relative to control; format: functional
[23] = test system: Homo sapiens; experiment: Effect on neutrophils level in intravenously dosed HIV associated cryptococcal meningitis patient after 2 weeks relative to baseline; format: functional
[24] = test system: Homo sapiens; experiment: Effect on platelet count in orally dosed HIV associated cryptococcal meningitis patient after 2 weeks relative to baseline; format: functional
[25] = test system: Homo sapiens; experiment: Effect on creatinine clearance in orally dosed HIV associated cryptococcal meningitis patient after 2 weeks relative to baseline; format: functional
[26] = test system: Homo sapiens; experiment: Volume of distribution in orally dosed HIV associated cryptococcal meningitis patient normalized to weight; format: ADME, organism-based; conditions: in vivo, po
[27] = test system: Homo sapiens; experiment: Effect on aspartate aminotransferase level in intravenously dosed HIV associated cryptococcal meningitis patient relative to control; format: functional
[28] = Oral clearance in HIV associated cryptococcal meningitis patient; format: ADME, organism-based; conditions: human, in vivo
[29] = test system: Homo sapiens; experiment: Effect on neutrophils level in orally dosed HIV associated cryptococcal meningitis patient relative to control; format: functional
[30] = test system: Homo sapiens; experiment: Effect on hemoglobin level in orally dosed HIV associated cryptococcal meningitis patient after 2 weeks relative to baseline; format: functional
[31] = test system: Homo sapiens; experiment: Effect on aspartate aminotransferase level in orally dosed HIV associated cryptococcal meningitis patient after 2 weeks relative to baseline; format: functional
[32] = test system: Homo sapiens; experiment: Effect on hemoglobin level in intravenously dosed HIV associated cryptococcal meningitis patient after 2 weeks relative to baseline; format: functional
[33] = test system: Homo sapiens; experiment: Effect on alanine transferase level in orally dosed HIV associated cryptococcal meningitis patient relative to control; format: functional

Nc1nc(=O)[nH]cc1F [FLUCYTOSINE]
Activity [1]: 249 10^9/L
Activity [2]: 10.6 g/dL
Activity [3]: 100%
Activity [4]: 94%
Creatinine_CL [5]: 75 mL/min
Activity [6]: 86%
Activity [7]: 40 U/L
Activity [8]: 38 U/L
Activity [9]: 11.2 g/dL
log10cfu/day [10]: -0.46
Activity [11]: 5.6 10^9/L
Activity [12]: 76%
Activity [13]: 73%
Vd [14]: 0.94 L/kg
Activity [15]: 263 10^9/L
log10cfu/day [16]: -0.48
clearance [17]: 63.3 mL/min
AUC at 24 h [18]: 1290 µg·h/mL
Activity [19]: 83%
log10cfu/day [20]: -0.43
AUC at 24 h [21]: 576 µg·h/mL
Creatinine_CL [22]: 74 mL/min
Activity [23]: 59%
Activity [24]: 112%
Activity [25]: 83%
Vdss [26]: 1.41 L/kg
Activity [27]: 33 U/L
CL/F [28]: 112 mL/min
Activity [29]: 4.5 10^9/L
Activity [30]: 70%
Activity [31]: 69%
Activity [32]: 78%
Activity [33]: 43 U/L
